Assay results published in article PMC4342272 (Journal of the American Chemical Society, 2015).
pIC50: −log10 of the molar value.

Molecular target: c-Abl (Homo sapiens, UniProt P00519)
Assay: Dose-response inhibition assay, AbAStide time-resolved Tb3+ luminescence
Format: biochemical

Sequence of c-Abl (P00519 whole entry): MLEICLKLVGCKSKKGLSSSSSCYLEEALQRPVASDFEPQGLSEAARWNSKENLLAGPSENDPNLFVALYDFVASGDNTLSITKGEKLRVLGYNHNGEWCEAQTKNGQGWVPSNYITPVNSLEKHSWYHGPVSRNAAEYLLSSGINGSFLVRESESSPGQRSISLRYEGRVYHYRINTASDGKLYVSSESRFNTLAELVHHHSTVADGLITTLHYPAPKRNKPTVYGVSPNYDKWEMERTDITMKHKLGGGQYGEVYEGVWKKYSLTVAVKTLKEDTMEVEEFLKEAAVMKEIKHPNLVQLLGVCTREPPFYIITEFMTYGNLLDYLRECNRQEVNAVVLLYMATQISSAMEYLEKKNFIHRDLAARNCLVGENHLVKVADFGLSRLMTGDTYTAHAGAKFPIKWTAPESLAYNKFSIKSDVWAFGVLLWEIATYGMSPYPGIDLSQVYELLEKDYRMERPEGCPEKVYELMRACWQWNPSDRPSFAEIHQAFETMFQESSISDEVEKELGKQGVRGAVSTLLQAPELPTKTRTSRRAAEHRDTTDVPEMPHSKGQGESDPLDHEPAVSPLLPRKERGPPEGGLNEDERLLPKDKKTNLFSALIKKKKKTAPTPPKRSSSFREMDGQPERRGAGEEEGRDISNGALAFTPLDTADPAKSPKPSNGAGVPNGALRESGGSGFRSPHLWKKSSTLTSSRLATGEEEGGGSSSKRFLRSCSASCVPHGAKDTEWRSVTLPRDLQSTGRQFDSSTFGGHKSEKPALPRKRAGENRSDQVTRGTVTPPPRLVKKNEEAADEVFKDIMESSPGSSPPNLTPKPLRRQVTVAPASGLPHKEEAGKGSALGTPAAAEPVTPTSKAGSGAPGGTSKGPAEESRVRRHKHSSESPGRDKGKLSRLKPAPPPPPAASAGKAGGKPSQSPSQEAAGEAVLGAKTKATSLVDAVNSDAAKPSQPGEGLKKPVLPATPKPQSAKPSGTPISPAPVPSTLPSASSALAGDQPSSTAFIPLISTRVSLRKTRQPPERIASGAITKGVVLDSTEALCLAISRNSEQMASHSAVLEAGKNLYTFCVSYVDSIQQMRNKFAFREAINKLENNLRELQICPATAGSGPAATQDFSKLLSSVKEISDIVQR

COc1cc(C=NNc2ncnc3c2cnn3-c2ccccc2)ccc1O [GW513184X]
pIC50: 9.46

COC(=O)Nc1nc2ccc(Sc3ccc(NC(=O)Nc4cc(C(F)(F)F)ccc4F)cc3)cc2[nH]1 [GW607049C]
inhibition of Abl in dose-response kinase assay (AbAStide biosensor, negative compounds from HTS): no inhibition

c1ccc(-c2n[nH]cc2-c2ccnc(-c3ccc(OCCn4ccnc4)cc3)c2)nc1 [GW711782X]
pIC50: 8.72

COC(=O)Nc1nc2ccc(Oc3ccc(NC(=O)Nc4cc(C(F)(F)F)ccc4F)cc3)cc2s1 [GW693917A]
pIC50: 9.28
